Experimental findings from US9221827B2, “Antimicrobial compounds and methods of making and using the same” (Melinta Therapeutics, Inc., priority 2011, dated 2015) are described below.

The subject of the first test is Escherichia coli strain ATCC25922. Put plainly: standard microdilution assay to determine minimum inhibitory concentrations (MICs). It is filed as cell-based. Conditions: Escherichia coli strain ATCC25922, microdilution. Summed up: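 MICs come from CLSI-guided microdilution in 100 μl, run alongside reference-strain performance standards. Values appear as "+" or "−" relative to 16 micrograms/ml, with "N/A" marking missing data.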
Take `N=C(N)NCCCNCc1ccc(-n2cc3cc(-c4cc(CCC5(CN)CC5)cc(SC(F)(F)F)c4)[nH]c3nc2=O)cc1` [Compound 307]: the “E. coli ATCC25922 MIC” value was “+ (a “+” indicates that the compound has an MIC value of 16 micrograms/ml or less)”.

Regarding `N=C(N)NCCCNCc1ccc(-n2cc3cc(-c4cc(CCC5COCC5N)cc(OC(F)(F)F)c4)[nH]c3nc2=O)cc1` (stereo not shown) [Compound 476], the “E. coli ATCC25922 MIC” value is “+ (a “+” indicates that the compound has an MIC value of 16 micrograms/ml or less)”.

With `CC(CN)Cc1cc(OC(F)(F)F)cc(-c2cc3cn(-c4ccc(CNCCCNC(=N)N)cc4)c(=O)nc3[nH]2)c1` (stereo not shown) [Compound 241], the “E. coli ATCC25922 MIC” value is “+ (a “+” indicates that the compound has an MIC value of 16 micrograms/ml or less)”.

`N=C(N)NCCCNCc1ccc(-n2cc3cc(-c4cc(COCCN)cc(OC(F)(F)F)c4)[nH]c3nc2=O)cc1` [Compound 36]: the “E. coli ATCC25922 MIC” value is recorded as “+ (a “+” indicates that the compound has an MIC value of 16 micrograms/ml or less)”.

Turning to `CC(N)CCCc1cc(-c2cc3cn(-c4ccc(C(C)NCCCNC(=N)N)cc4)c(=O)nc3[nH]2)cc(C2CCCC2)c1` (stereo not shown) [Compound 484], the “E. coli ATCC25922 MIC” value was “+ (a “+” indicates that the compound has an MIC value of 16 micrograms/ml or less)”.

On to `C[C@@H](CCCc1cc(-c2cc3cn(-c4ccc(CNCCCNC(=N)N)cc4)c(=O)nc3[nH]2)cc(C(F)(F)F)c1)N(C)C` [Compound 309], for which the “E. coli ATCC25922 MIC” value is on record as “+ (a “+” indicates that the compound has an MIC value of 16 micrograms/ml or less)”.

Consider `N#Cc1cc(CCCCN)cc(-c2cc3cn(-c4ccc(CNCCCNC(=N)N)cc4)c(=O)nc3[nH]2)c1Cl` [Compound 114], for which the “E. coli ATCC25922 MIC” value is recorded as “+ (a “+” indicates that the compound has an MIC value of 16 micrograms/ml or less)”.

As to `CC(N)CCc1cc(Cl)c(F)c(-c2cc3cn(-c4ccc(CNCCCNC(=N)N)cc4)c(=O)nc3[nH]2)c1` (stereo not shown) [Compound 257], the “E. coli ATCC25922 MIC” value was “+ (a “+” indicates that the compound has an MIC value of 16 micrograms/ml or less)”.

In the case of `NCCCCc1cc(-c2cc3cn(-c4ccc(CNCCCN=C(N)N)c(F)c4)c(=O)nc3[nH]2)cc(C(F)(F)F)c1` [Compound 80], the “E. coli ATCC25922 MIC” value is given as “+ (a “+” indicates that the compound has an MIC value of 16 micrograms/ml or less)”.

For `C[C@@H](CN)OCc1cc(-c2cc3cn(-c4ccc(CNCCCNC(=N)N)cc4)c(=O)nc3[nH]2)cc(C(F)(F)F)c1` [Compound 314], the “E. coli ATCC25922 MIC” value was “+ (a “+” indicates that the compound has an MIC value of 16 micrograms/ml or less)”.

With `C[C@H](NCCCNC(=N)N)c1ccc(-n2cc3cc(-c4cc(CCCC(C)(C)N)cc(Cl)c4F)[nH]c3nc2=O)cc1` [Compound 296], the “E. coli ATCC25922 MIC” value is reported as “+ (a “+” indicates that the compound has an MIC value of 16 micrograms/ml or less)”.

In the case of `C[C@@H](CN)OCc1cc(SC(F)(F)F)cc(-c2cc3cn(-c4ccc(CNCCCNC(=N)N)cc4)c(=O)nc3[nH]2)c1` [Compound 326], the “E. coli ATCC25922 MIC” value is “+ (a “+” indicates that the compound has an MIC value of 16 micrograms/ml or less)”.

For the molecule `CC(CCN)Cc1cc(F)c(Cl)c(-c2cc3cn(-c4ccc(CNCCCNC(=N)N)cc4)c(=O)nc3[nH]2)c1` (stereo not shown) [Compound 128], the “E. coli ATCC25922 MIC” value is given as “+ (a “+” indicates that the compound has an MIC value of 16 micrograms/ml or less)”.

On to `Cc1c(C#N)cc(CCCCN)cc1-c1cc2cn(-c3ccc(CNCCCNC(=N)N)cc3)c(=O)nc2[nH]1` [Compound 134], for which the “E. coli ATCC25922 MIC” value is “+ (a “+” indicates that the compound has an MIC value of 16 micrograms/ml or less)”.

On to `CCc1cc(CCCCN)cc(-c2cc3cn(-c4ccc(CNCCCNC(=N)N)cc4)c(=O)nc3[nH]2)c1Cl` [Compound 217], for which the “E. coli ATCC25922 MIC” value is listed as “+ (a “+” indicates that the compound has an MIC value of 16 micrograms/ml or less)”.

Regarding `CC(N)CCCc1cc(-c2cc3cn(-c4ccc(C(C)NCCCNC(=N)N)cc4)c(=O)nc3[nH]2)cc(C(O)C(F)(F)F)c1` (stereo not shown) [Compound 504], the “E. coli ATCC25922 MIC” value was “+ (a “+” indicates that the compound has an MIC value of 16 micrograms/ml or less)”.

`N=C(N)NCCCNCc1ccc(-c2c[nH]c(NC(=O)Nc3c(Cl)cccc3OCCCN)nc2=O)cc1` [Compound 187]: the “E. coli ATCC25922 MIC” value is recorded as “− (a “−” indicates that the compound has an MIC value greater than 16 micrograms/ml)”.

`N=C(N)NCCCNCc1ccc(-n2cc3cc(-c4cc(CCCCN)cc(OC(F)(F)F)c4)[nH]c3nc2=O)cc1F` [Compound 39]: the “E. coli ATCC25922 MIC” value is “+ (a “+” indicates that the compound has an MIC value of 16 micrograms/ml or less)”.

Regarding `N=C(N)NCCCNCc1ccc(-n2cc3cc(-c4cc(CCCCN)cc(F)c4C(F)(F)F)[nH]c3nc2=O)cc1` [Compound 218], the “E. coli ATCC25922 MIC” value was “+ (a “+” indicates that the compound has an MIC value of 16 micrograms/ml or less)”.

With `CC(N)CCCc1cc(Cl)c(F)c(-c2cc3cn(-c4ccc(CNCCCNC(=N)N)cc4)c(=O)nc3[nH]2)c1` (stereo not shown) [Compound 268], the “E. coli ATCC25922 MIC” value is reported as “+ (a “+” indicates that the compound has an MIC value of 16 micrograms/ml or less)”.

As for `CC(C)(N)CCCc1cc(SC(F)(F)F)cc(-c2cc3cn(-c4ccc(CNCCCNC(=N)N)cc4)c(=O)nc3[nH]2)c1` [Compound 303], the “E. coli ATCC25922 MIC” value is given as “+ (a “+” indicates that the compound has an MIC value of 16 micrograms/ml or less)”.

As to `CCCOc1cc(CCCCN)cc(-c2cc3cn(-c4ccc(CNCCCNC(=N)N)cc4)c(=O)nc3[nH]2)c1C(F)(F)F` [Compound 251], the “E. coli ATCC25922 MIC” value was “+ (a “+” indicates that the compound has an MIC value of 16 micrograms/ml or less)”.

For `CC(N)CCCc1cc(-c2cc3cn(-c4ccc(CNCCCNC(=N)N)cc4)c(=O)nc3[nH]2)c(F)c(Cl)c1F` (stereo not shown) [Compound 499], the “E. coli ATCC25922 MIC” value is on record as “+ (a “+” indicates that the compound has an MIC value of 16 micrograms/ml or less)”.

As to `CCc1cc(CCCCN)cc(-c2cc3cn(-c4ccc(CNCCCNC(=N)N)cc4)c(=O)nc3[nH]2)c1F` [Compound 135], the “E. coli ATCC25922 MIC” value is listed as “+ (a “+” indicates that the compound has an MIC value of 16 micrograms/ml or less)”.

As for `CC(CCCN)c1cc(OC(F)(F)F)cc(-c2cc3cn(-c4ccc(CNCCCNC(=N)N)cc4)c(=O)nc3[nH]2)c1` (stereo not shown) [Compound 94], the “E. coli ATCC25922 MIC” value was “+ (a “+” indicates that the compound has an MIC value of 16 micrograms/ml or less)”.

Staying with this test, now noted: Escherichia coli strain ATCC25922, standard microdilution assay.
In the case of `CC(C)c1cc(CCC[C@H](C)N)cc(-c2cc3cn(-c4ccc(CNCCCNC(=N)N)cc4)c(=O)nc3[nH]2)c1F` [Compound 408], the “E. coli ATCC25922 MIC” value is reported as “+ (a “+” indicates that the compound has an MIC value of 16 micrograms/ml or less)”.

With `CN=C(N)NCCCNCc1ccc(-n2cc3cc(-c4cc(CCCC(C)N)cc(Cl)c4F)[nH]c3nc2=O)cc1` (stereo not shown) [Compound 382], the “E. coli ATCC25922 MIC” value is on record as “+ (a “+” indicates that the compound has an MIC value of 16 micrograms/ml or less)”.

For the molecule `CC(NCCCNC(=N)N)c1ccc(-n2cc3cc(-c4cc(OC(F)(F)F)cc(C5CCC(CN)O5)c4)[nH]c3nc2=O)cc1` (stereo not shown) [Compound 436], the “E. coli ATCC25922 MIC” value is “+ (a “+” indicates that the compound has an MIC value of 16 micrograms/ml or less)”.

`C[C@H](N)CCCc1cc(-c2cc3cn(-c4ccc([C@H](C)NCCCNC(=N)N)cc4)c(=O)nc3[nH]2)cc(Cl)n1` [Compound 428]: the “E. coli ATCC25922 MIC” value is listed as “+ (a “+” indicates that the compound has an MIC value of 16 micrograms/ml or less)”.

On to `C[C@H](N)CCCc1cc(-c2cc3cn(-c4ccc([C@H](C)NCCCNC(=N)N)cc4)c(=O)nc3[nH]2)cc2c1COC2` [Compound 443], for which the “E. coli ATCC25922 MIC” value is listed as “+ (a “+” indicates that the compound has an MIC value of 16 micrograms/ml or less)”.

As for `C[C@H](NCCCNC(=N)N)c1ccc(-n2cc3cc(-c4cc(COC5COCC5N)cc(OC(F)(F)F)c4)[nH]c3nc2=O)cc1` (stereo partly shown) [Compound 460], the “E. coli ATCC25922 MIC” value is “+ (a “+” indicates that the compound has an MIC value of 16 micrograms/ml or less)”.

For `CC(NCCCNC(=N)N)c1ccc(-n2cc3cc(-c4cc(CC5CC(CN)C5)cc(SC(F)(F)F)c4)[nH]c3nc2=O)cc1` (mixture of isomers) [Compound 401], the “E. coli ATCC25922 MIC” value is “+ (a “+” indicates that the compound has an MIC value of 16 micrograms/ml or less)”.

Regarding `C[C@H](N)CCCc1cc(-c2cc3cn(-c4ccc([C@H](C)NCCCNC(=N)N)cc4)c(=O)nc3[nH]2)cc2c1CCC2` [Compound 393], the “E. coli ATCC25922 MIC” value is reported as “+ (a “+” indicates that the compound has an MIC value of 16 micrograms/ml or less)”.

For the molecule `C[C@H](NCCCNC(=N)N)c1ccc(-n2cc3cc(-c4cc(CSC(C)(C)CN)cc(SC(F)(F)F)c4)[nH]c3nc2=O)cc1` [Compound 377], the “E. coli ATCC25922 MIC” value is “+ (a “+” indicates that the compound has an MIC value of 16 micrograms/ml or less)”.

Regarding `CC(NCCCNC(=N)N)c1ccc(-n2cc3cc(-c4cc(CC5CC(CN)C5)cc(C(F)(F)F)c4)[nH]c3nc2=O)cc1` (stereo not shown) [Compound 350], the “E. coli ATCC25922 MIC” value is given as “+ (a “+” indicates that the compound has an MIC value of 16 micrograms/ml or less)”.

For the molecule `CC(N)CCCc1cc(Cl)c(F)c(-c2cc3cn(-c4ccc(C(C)NCCCNC(N)=NCC5CC5)cc4)c(=O)nc3[nH]2)c1` (stereo not shown) [Compound 346], the “E. coli ATCC25922 MIC” value was “+ (a “+” indicates that the compound has an MIC value of 16 micrograms/ml or less)”.

Consider `C[C@H](N)CCCc1cc(-c2cc3cn(-c4ccc(CNCCCNC(=N)N)cc4)c(=O)nc3[nH]2)cc(F)c1F` [Compound 465], for which the “E. coli ATCC25922 MIC” value is recorded as “+ (a “+” indicates that the compound has an MIC value of 16 micrograms/ml or less)”.

Consider `CCN=C(N)NCCCNC(C)c1ccc(-n2cc3cc(-c4cc(CCCC(C)N)cc(Cl)c4F)[nH]c3nc2=O)cc1` (stereo not shown) [Compound 362], for which the “E. coli ATCC25922 MIC” value was “+ (a “+” indicates that the compound has an MIC value of 16 micrograms/ml or less)”.

As for `C[C@H](NCCCNC(=N)N)c1ccc(-n2cc3cc(-c4cc(C[C@H]5C[C@@H](N)C5)cc(C(F)(F)F)c4)[nH]c3nc2=O)cc1` [Compound 395], the “E. coli ATCC25922 MIC” value was “+ (a “+” indicates that the compound has an MIC value of 16 micrograms/ml or less)”.

For `CC(N)CCCc1cc(-c2cc3cn(-c4ccc(CNCCCCC(=N)N)cc4)c(=O)nc3[nH]2)cc(C(F)(F)F)c1` (stereo not shown) [Compound 365], the “E. coli ATCC25922 MIC” value is listed as “− (a “−” indicates that the compound has an MIC value greater than 16 micrograms/ml)”.
